# Non-standard residues stand in square brackets, D forms with d. Residues, ends and D or L forms follow the SMILES beside them. *: point of attachment. pS = N[C@@H](COP(=O)(O)O)C(=O)O; Meb = Cc1ccc(C*)cc1
# Target: T1, interactions between Talin 1 (TLN1) and integrin subunit beta (ITGB) (Homo sapiens, UniProt Q9Y490)
# T1 construct: LgBit or SmBit (N-terminal of the HaloTag); made in house
# Assay: Flip-flop detection mechanism on DNA origami (LgBit/SmBit luminescence), inhibitor screening
# Format: biochemical
# Conditions: inhibition of binding between TLN1 and ITBG
# Source text: Two types of systems, i.e., flip-flop detection mechanism and switch detection mechanism, were constructed by using HaloTag, LgBit, SmBit, TLN1, and ITGB. Each of TLN1 (Uniprot ID: Q9Y490) and ITGB1 (Uniprot ID: P05556) was cloned from the registered genetic information. HaloTAg has three chemically modifiable locations at a ligand recognition site, C-terminus, and N-terminus. In this Example, a single-stranded DNA for attaching to DNA origami was connected to a ligand recognition site of HaloTag, a subunit of an interaction complex was connected to the C-terminus, and LgBit or SmBit was connected to the N-terminus.
# The outline of the system is disclosed in Figure 23. When TLN1 and ITBG are in a bound state in this system, LgBit and SmBit are at spatially separated positions from each other, with a HaloTag interposed therebetween. In this regard, if an inhibitor is added, complex formation of TLN1 and ITBG is inhibited. As a result, a LgBit-SmBit complex can be formed, and a luminescence reaction progresses.
# As a candidate drug for inhibiting the binding between TLN1 and ITBG, peptide inhibitors consisting of 13 amino acids prepared by modifying amino acids in an intracellular region of ITGB3 have been designed (Shen B. et al., A directional switch of integrin signaling and a new antithrombotic strategy. Nature 503, 131-135 (2013)). IC50 values for the peptides shown in the following table were calculated by using the flip-flop detection mechanism described in Example 11 for optimizing the sequence. In this manner, the effect of a large number of compounds on the interaction with a target protein can be readily analyzed in the system of the present disclosed.
row,Inhibitory activity,Structure (SMILES)
1,no inhibition,CSCC[C@H](NC(=O)[C@H](CCCNC(=N)N)NC(=O)[C@H](CCC(=O)O)NC(=O)[C@H](CCCCN)NC(=O)[C@H](CCC(=O)O)NC(=O)[C@H](Cc1ccccc1)NC(=O)[C@@H](N)CCCCN)C(=O)N[C@@H](CCSC)C(=O)N[C@@H](CS)C(=O)N[C@@H](CCCCN)C(=O)N[C@@H](Cc1c[nH]c2ccccc12)C(=O)N[C@@H](CCSC)C(=O)N[C@H](C(=O)O)[C@@H](C)O [FIYM33] (H-KFEKERMMCKWMT-OH)
2,no inhibition,CSCC[C@H](NC(=O)[C@H](CCCCN)NC(=O)[C@H](CCC(=O)O)NC(=O)[C@H](CCCCN)NC(=O)[C@H](CCC(=O)O)NC(=O)[C@H](Cc1ccccc1)NC(=O)[C@@H](N)CCCCN)C(=O)N[C@@H](CC(N)=O)C(=O)N[C@H](C(=O)N[C@@H](CCCCN)C(=O)N[C@@H](Cc1c[nH]c2ccccc12)C(=O)N[C@@H](CCSC)C(=O)N[C@H](C(=O)O)[C@@H](C)O)[C@@H](C)O [FIYM34] (H-KFEKEKMNTKWMT-OH)
3,no inhibition,CSCC[C@H](NC(=O)[C@H](CCCCN)NC(=O)[C@H](CCC(=O)O)NC(=O)[C@H](CCCCN)NC(=O)[C@H](CCC(=O)O)NC(=O)[C@H](Cc1ccccc1)NC(=O)[C@@H](N)CCCCN)C(=O)N[C@@H](CC(N)=O)C(=O)N[C@@H](CS)C(=O)N[C@@H](CCCCN)C(=O)N[C@@H](Cc1c[nH]c2ccccc12)C(=O)N[C@@H](CC(=O)O)C(=O)N[C@H](C(=O)O)[C@@H](C)O [FIYM8] (H-KFEKEKMNCKWDT-OH)
4,no inhibition,CSCC[C@H](NC(=O)[C@H](CCCCN)NC(=O)[C@H](CCC(=O)O)NC(=O)[C@H](CCCCN)NC(=O)[C@H](CCC(=O)O)NC(=O)[C@H](Cc1ccccc1)NC(=O)[C@@H](N)CCCCN)C(=O)N[C@@H](CC(N)=O)C(=O)N[C@@H](CSCc1ccc(C)cc1)C(=O)N[C@@H](CCCCN)C(=O)N[C@@H](Cc1c[nH]c2ccccc12)C(=O)N[C@@H](CCSC)C(=O)N[C@H](C(=O)O)[C@@H](C)O [FIYM41] (H-KFEKEKMNC(Meb)KWMT-OH)
5,no inhibition,CSCC[C@H](NC(=O)[C@H](CCCCN)NC(=O)[C@H](CCC(=O)O)NC(=O)[C@H](CCCNC(=N)N)NC(=O)[C@H](CCC(=O)O)NC(=O)[C@H](Cc1ccccc1)NC(=O)[C@@H](N)CCCNC(=N)N)C(=O)N[C@@H](CC(N)=O)C(=O)N[C@@H](CS)C(=O)N[C@@H](CCCNC(=N)N)C(=O)N[C@@H](Cc1c[nH]c2ccccc12)C(=O)N[C@@H](CCSC)C(=O)N[C@H](C(=O)O)[C@@H](C)O [FIYM16] (H-RFEREKMNCRWMT-OH)
6,no inhibition,CSCC[C@H](NC(=O)[C@H](CCCCN)NC(=O)[C@H](CCC(=O)O)NC(=O)[C@H](CCCCN)NC(=O)[C@H](CCC(=O)O)NC(=O)[C@H](Cc1ccccc1)NC(=O)[C@@H](N)CCCCN)C(=O)N[C@@H](CCSC)C(=O)N[C@@H](CS)C(=O)N[C@@H](CCCCN)C(=O)N[C@@H](Cc1c[nH]c2ccccc12)C(=O)N[C@@H](CCSC)C(=O)N[C@H](C(=O)O)[C@@H](C)O [FIYM29] (H-KFEKEKMMCKWMT-OH)
7,no inhibition,CSCC[C@H](NC(=O)[C@H](CCCNC(=N)N)NC(=O)[C@H](CCC(=O)O)NC(=O)[C@H](CCCCN)NC(=O)[C@H](CCC(=O)O)NC(=O)[C@H](Cc1ccccc1)NC(=O)[C@@H](N)CCCNC(=N)N)C(=O)N[C@@H](CC(N)=O)C(=O)N[C@@H](CS)C(=O)N[C@@H](CCCCN)C(=O)N[C@@H](Cc1c[nH]c2ccccc12)C(=O)N[C@@H](CCSC)C(=O)N[C@H](C(=O)O)[C@@H](C)O [FIYM30] (H-RFEKERMNCKWMT-OH)
8,no inhibition,CSCC[C@H](NC(=O)[C@H](CCCCN)NC(=O)[C@H](CCC(=O)O)NC(=O)[C@H](CCCCN)NC(=O)[C@H](CCC(=O)O)NC(=O)[C@H](Cc1ccccc1)NC(=O)[C@@H](N)CCCCN)C(=O)N[C@@H](CC(N)=O)C(=O)N[C@@H](COP(=O)(O)O)C(=O)N[C@@H](CCCCN)C(=O)N[C@@H](Cc1c[nH]c2ccccc12)C(=O)N[C@@H](CCSC)C(=O)N[C@H](C(=O)O)[C@@H](C)O [FIYM36] (H-KFEKEKMN[pS]KWMT-OH)
9,no inhibition,CSCC[C@H](NC(=O)[C@H](Cc1c[nH]c2ccccc12)NC(=O)[C@H](CCCCN)NC(=O)[C@H](CS)NC(=O)[C@H](CC(N)=O)NC(=O)[C@H](CCSC)NC(=O)[C@H](CCCCN)NC(=O)[C@H](CCC(=O)O)NC(=O)[C@H](CCCCN)NC(=O)[C@H](CCC(=O)O)NC(=O)[C@@H](N)Cc1ccccc1)C(=O)O [FIYM24] (H-FEKEKMNCKWM-OH)
10,no inhibition,CC[C@H](C)[C@H](NC(=O)[C@@H]1CCCN1C(=O)[C@H](CC(N)=O)NC(=O)[C@H](CCC(=O)O)NC(=O)CNC(=O)[C@@H](NC(=O)[C@H](CC(=O)O)NC(=O)[C@H](Cc1c[nH]c2ccccc12)NC(=O)[C@@H](N)CCCCN)[C@@H](C)O)C(=O)N[C@@H](Cc1ccc(O)cc1)C(=O)N[C@@H](CCCCN)C(=O)O [FIYM4] (H-KWDTGENPIYK-OH)
11,no inhibition,CSCC[C@H](NC(=O)[C@H](Cc1c[nH]c2ccccc12)NC(=O)[C@H](CCCCN)NC(=O)[C@H](CS)NC(=O)[C@H](CC(N)=O)NC(=O)[C@H](CCSC)NC(=O)[C@H](CCCCN)NC(=O)[C@H](CCC(=O)O)NC(=O)[C@H](CCCCN)NC(=O)[C@H](CCC(=O)O)NC(=O)[C@H](Cc1ccccc1)NC(=O)[C@@H](N)CCCCN)C(=O)N[C@@H](CCCCN)C(=O)O [FIYM11] (H-KFEKEKMNCKWMK-OH)
12,no inhibition,CSCC[C@H](NC(=O)[C@H](CCCCN)NC(=O)[C@H](CCC(=O)O)NC(=O)[C@H](CCCCN)NC(=O)[C@H](CCC(=O)O)NC(=O)[C@H](Cc1ccccc1)NC(=O)[C@@H](N)CCCCN)C(=O)N[C@@H](CC(N)=O)C(=O)N[C@@H](CCSC)C(=O)N[C@@H](CCCCN)C(=O)N[C@@H](Cc1c[nH]c2ccccc12)C(=O)N[C@@H](CCSC)C(=O)N[C@H](C(=O)O)[C@@H](C)O [FIYM35] (H-KFEKEKMNMKWMT-OH)

# Same assay, conditions: inhibition of binding between TLN1 and ITBG, read-out: Inhibitory activity
row,IC50,Structure (SMILES)
1,472 µM,CSCC[C@H](NC(=O)[C@H](Cc1c[nH]c2ccccc12)NC(=O)[C@H](CCCCN)NC(=O)[C@H](CS)NC(=O)[C@H](CC(N)=O)NC(=O)[C@H](CCSC)NC(=O)[C@H](CCCCN)NC(=O)[C@H](CCC(=O)O)NC(=O)[C@H](CCCCN)NC(=O)[C@H](CCC(=O)O)NC(=O)[C@H](Cc1ccccc1)NC(=O)[C@@H](N)CCCCN)C(=O)O [FIYM22] (H-KFEKEKMNCKWM-OH)
2,444 µM,CSCC[C@H](NC(=O)[C@H](CCCCN)NC(=O)[C@H](CCC(=O)O)NC(=O)[C@H](CCCCN)NC(=O)[C@H](CCC(=O)O)NC(=O)[C@@H](N)Cc1ccccc1)C(=O)N[C@@H](CC(N)=O)C(=O)N[C@@H](CS)C(=O)N[C@@H](CCCCN)C(=O)N[C@@H](Cc1c[nH]c2ccccc12)C(=O)N[C@@H](CCSC)C(=O)N[C@H](C(=O)O)[C@@H](C)O [FIYM23] (H-FEKEKMNCKWMT-OH)
3,5.7 µM,CSCC[C@H](NC(=O)[C@H](CCCCN)NC(=O)[C@H](CCC(=O)O)NC(=O)[C@H](CCCCN)NC(=O)[C@H](CCC(=O)O)NC(=O)[C@H](Cc1ccccc1)NC(=O)[C@@H](N)CCCCN)C(=O)N[C@@H](CC(N)=O)C(=O)N[C@@H](CS)C(=O)N[C@@H](CCCCN)C(=O)N[C@@H](Cc1c[nH]c2ccccc12)C(=O)N[C@@H](CCSC)C(=O)N[C@H](C(=O)O)[C@@H](C)O [FIYM10] (H-KFEKEKMNCKWMT-OH)
4,709 µM,CSCC[C@H](NC(=O)[C@H](CCCCN)NC(=O)[C@H](CCC(=O)O)NC(=O)[C@H](CCCCN)NC(=O)[C@H](CCC(=O)O)NC(=O)[C@H](Cc1ccccc1)NC(=O)[C@@H](N)CCCCN)C(=O)N[C@@H](CC(N)=O)C(=O)N[C@@H](C)C(=O)N[C@@H](CCCCN)C(=O)N[C@@H](Cc1c[nH]c2ccccc12)C(=O)N[C@@H](CC(=O)O)C(=O)N[C@H](C(=O)O)[C@@H](C)O [FIYM1] (H-KFEKEKMNAKWDT-OH)

# Same assay, conditions: inhibition of binding between TLN1 and ITBG, µM, read-out: Inhibitory activity
row,IC50,Structure (SMILES)
1,292 µM,CSCC[C@H](NC(=O)[C@H](CCCCN)NC(=O)[C@H](CCC(=O)O)NC(=O)[C@H](CCCCN)NC(=O)[C@H](CCC(=O)O)NC(=O)[C@H](Cc1ccccc1)NC(=O)[C@H](CCCCN)NC(=O)[C@@H](N)CCSC)C(=O)N[C@@H](CC(N)=O)C(=O)N[C@@H](CS)C(=O)N[C@@H](CCCCN)C(=O)N[C@@H](Cc1c[nH]c2ccccc12)C(=O)N[C@@H](CCSC)C(=O)N[C@H](C(=O)O)[C@@H](C)O [FIYM48] (H-MKFEKEKMNCKWMT-OH)
2,71.4 µM,CSCC[C@H](NC(=O)[C@H](CCCCN)NC(=O)[C@H](CCC(=O)O)NC(=O)[C@H](CCCCN)NC(=O)[C@H](CCC(=O)O)NC(=O)[C@H](Cc1ccccc1)NC(=O)[C@@H](N)CCSC)C(=O)N[C@@H](CC(N)=O)C(=O)N[C@@H](CS)C(=O)N[C@@H](CCCCN)C(=O)N[C@@H](Cc1c[nH]c2ccccc12)C(=O)N[C@@H](CCSC)C(=O)N[C@H](C(=O)O)[C@@H](C)O [FIYM47] (H-MFEKEKMNCKWMT-OH)
